Where “and” joins values, the source holds several entries; their conditions need not be identical. Equal entries are not always repeated.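 Growth conditions: 96-well plates. Treatment: test compound, 48 hours, 5 concentrations. Analysis: linear interpolation between bracketing concentrations; unreached endpoints set to highest concentration. The concentration for 50% growth inhibition is given as GI50. TGI denotes the concentration required for complete inhibition of growth.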
Assays:
Assay in all cases: inhibition of tumour cell growth, NCI panel, 48 h
SF-268 CNS = system: SF-268 CNS
OVCAR-3 ovarian = system: OVCAR-3 ovarian
IGROV1 ovarian = system: IGROV1 ovarian
HCT-15 colon = system: HCT-15 colon
PC-3 prostate = system: PC-3 prostate
SN12C renal = system: SN12C renal
MDA-MB-435 = system: MDA-MB-435
M14 melanoma = system: M14 melanoma

Structure (SMILES)	GI50 (SF-268 CNS)	TGI (SF-268 CNS)	GI50 (OVCAR-3 ovarian)	TGI (OVCAR-3 ovarian)	GI50 (IGROV1 ovarian)	TGI (IGROV1 ovarian)	GI50 (HCT-15 colon)	TGI (HCT-15 colon)	GI50 (PC-3 prostate)	TGI (PC-3 prostate)	GI50 (SN12C renal)	TGI (SN12C renal)	GI50 (MDA-MB-435)	TGI (MDA-MB-435)	GI50 (M14 melanoma)	TGI (M14 melanoma)
Nc1c(C(=O)c2ccc(CCCN3CCOCC3)cc2)cnn1-c1ccc(F)cc1	> 25 µM	> 25 µM	24.3 µM	> 25 µM	> 25 µM	> 25 µM	> 25 µM	> 25 µM	> 25 µM	> 25 µM	> 25 µM	> 25 µM	> 25 µM	> 25 µM	> 25 µM	> 25 µM
O=S(=O)(Nc1cc(Cl)ccc1Cl)c1ccc(-c2cnc(C3CC3)o2)cc1	10.7 µM	71.3 µM	0.512 µM	14.8 µM	0.673 µM	> 100 µM	0.608 µM	> 100 µM	0.563 µM	17 µM	4.32 µM	> 100 µM	0.346 µM	1.49 µM	0.547 µM	10.5 µM
COc1ccc(-c2nc(N3CCN(C(=O)C4CCCCC4)CC3)c3c4c(sc3n2)CCCC4)cc1	89 µM	> 100 µM	> 100 µM	> 100 µM	41.2 µM	> 100 µM	> 100 µM	> 100 µM	26.1 µM	> 100 µM	> 100 µM	> 100 µM	> 100 µM	> 100 µM	> 100 µM	> 100 µM
O=C(CCC(C(=O)c1ccccc1)c1ccccc1)c1ccccc1 (configuration not stated)	35.6 µM	> 100 µM	5.78 µM	> 100 µM	32 µM	> 100 µM	4.92 µM	> 100 µM	7.94 µM	> 100 µM	20.2 µM	> 100 µM	2.01 µM	6.03 µM	6.82 µM	> 100 µM
O=C(/C(=C/c1ccc([N+](=O)[O-])cc1)SCc1ccc(F)cc1)c1ccc(Cl)cc1	9.44 µM	33.5 µM	3.06 µM	10.6 µM	9.4 µM	38.7 µM	2.9 µM	11.6 µM	3.93 µM	16.2 µM	6.94 µM	34.5 µM	2.78 µM	9.49 µM	3.91 µM	20.2 µM
CNC(=O)Oc1cc(C)c(/C=C/c2cncc(C(=O)NC)c2)c(C)c1	> 25 µM	> 25 µM	> 25 µM	> 25 µM	> 23.2 µM	> 25 µM	> 25 µM	> 25 µM	> 25 µM	> 25 µM	> 25 µM	> 25 µM	8.44 µM	> 25 µM	16.8 µM	> 25 µM
C[C@H](CCCNCCCNCCCN)[C@H]1CC[C@H]2[C@@H]3[C@H](OCCCN)C[C@H]4C[C@H](OCCCN)CC[C@]4(C)[C@H]3C[C@H](OCCCN)[C@]12C	1.54 µM	16.1 µM	14.6 µM	> 62.5 µM	0.421 µM	8.86 µM	3.14 µM	> 100 µM	18.3 µM	> 100 µM	1.61 µM	24.2 µM	0.34 µM	1.14 µM	0.874 µM	3.88 µM
O=C1c2ccccc2-c2c1c1c(O)cccc1n2-c1ccccc1	> 100 µM	> 100 µM	> 100 µM	> 100 µM	> 100 µM	> 100 µM	> 100 µM	> 100 µM	> 100 µM	> 100 µM	> 100 µM	> 100 µM	> 100 µM	> 100 µM	29.3 µM	> 100 µM
O=C(NCc1ccco1)c1ccc(NC2=C(Cl)C(=O)N(Cc3ccccc3)C2=O)cc1	17.8 µM	54.1 µM	16.7 µM	31.3 µM	2.12 µM	35.2 µM	17.7 µM	74.4 µM	17.5 µM	32.5 µM	17.4 µM	40.6 µM	16.3 µM	37.6 µM	15.1 µM	28.4 µM
COc1ccc(-c2cc(-c3ccc(O)cc3)nc3n[nH]c(N)c23)cc1	19.6 µM	56.2 µM	13.5 µM	31.7 µM	17 µM	52.2 µM	25.9 µM	95 µM	29.1 µM	> 100 µM	19.2 µM	36.5 µM	22 µM	47.4 µM	21.3 µM	43 µM
CCN(CC)CCNc1cc(-c2cccc(OC(F)(F)F)c2)nc2ccc(N3CCCC3)cc12	1.98 µM and 1.92 µM and 2.23 µM	4.18 µM and 3.96 µM and 5.89 µM	1.82 µM and 1.83 µM and 1.9 µM	4.11 µM and 3.77 µM and 4.41 µM	1.34 µM and 1.41 µM and 1.46 µM	2.87 µM and 3.04 µM and 3.05 µM	1.46 µM and 1.38 µM and 1.73 µM	3.17 µM and 2.84 µM and 3.71 µM	1.37 µM and 1.57 µM and 1.81 µM	2.76 µM and 3.1 µM and 3.81 µM	1.69 µM and 1.53 µM and 1.89 µM	3.37 µM and 2.98 µM and 3.86 µM	1.47 µM and 1.43 µM and 1.74 µM	2.83 µM and 2.85 µM and 3.3 µM	1.6 µM and 1.82 µM and 1.86 µM	3.12 µM and 3.51 µM and 3.63 µM
Cc1cc(Oc2ccc3nc(COc4ccc(CC5SC(=O)NC5=O)cc4)n(C)c3c2)cc(C)c1N (configuration not stated)	46.7 µM	> 100 µM	28 µM	> 70.9 µM	> 64.3 µM	> 100 µM	29.1 µM	> 87.8 µM	31.8 µM	> 90.1 µM	44.1 µM	> 100 µM	27.4 µM	> 100 µM	29.6 µM	> 78.3 µM

From PubChem BioAssay (NCI)
